According to the NIST ThermoML archive (doi:10.1021/acs.jced.8b00250):
± gives the expanded uncertainty stated by the source.

Assay: mn = molality of the nth substance listed, in mol/kg
Settings: 298.15 K, 101.3 kPa, Liquid, Alternating current cell with electrodes

CCCCC(CC)COC(=O)CC(C(=O)OCC(CC)CCCC)S(=O)(=O)[O-].[Na+] (stereo unspecified) [sodium bis(2-ethylhexyl) sulfosuccinate] + O
Settings	electrical conductivity [S/m]
m1 = 0.1687	0.00147 ± 5.9e-05
m1 = 0.5229	0.00389 ± 0.00016
m1 = 0.8008	0.00578 ± 0.00023
m1 = 1.108	0.00786 ± 0.00031
m1 = 1.374	0.00965 ± 0.00039
m1 = 1.663	0.0116 ± 0.00046
m1 = 2.015	0.0139 ± 0.00056
m1 = 2.327	0.0161 ± 0.00065
m1 = 2.661	0.0184 ± 0.00074
m1 = 3.026	0.0213 ± 0.0009
m1 = 3.398	0.0239 ± 0.001
m1 = 3.654	0.0258 ± 0.001
m1 = 3.95	0.0279 ± 0.0011
m1 = 4.202	0.0296 ± 0.0012
m1 = 4.434	0.0313 ± 0.0013
m1 = 4.65	0.0328 ± 0.0013
m1 = 4.896	0.0345 ± 0.0014
m1 = 5.165	0.0363 ± 0.0015
m1 = 5.513	0.0387 ± 0.0015
m1 = 5.782	0.0405 ± 0.0016

O [water] + CCCCC(CC)COC(=O)CC(C(=O)OCC(CC)CCCC)S(=O)(=O)[O-].[Na+]
Settings	electrical conductivity [S/m]
m2 = 0	0.000327 ± 1.3e-05
